Values after ≈ are worked out from the molar mass of the structure shown.
Tests used:
[1] = Metabolic stability in human liver microsomes assessed as intrinsic clearance at 0.5 uM incubated for 60 mins in presence of NADPH by tandem quadrupole-Time of Flight MS; type: ADME, Microsome; conditions: 1 h
[2] = Kinetic solubility of compound at pH 6.5 measured after 30 mins by nephelometry; type: physicochemical; conditions: buffer; for solubility kinetic at 0.5 h: pH 6.5, read-out: Kinetic_solubility; for Kinetic_solubility: pH 6.5, 0.5 h
[3] = target: Dihydroorotate dehydrogenase (quinone), mitochondrial (Homo sapiens, UniProt Q02127); experiment: Inhibition of C-terminal His6-tagged recombinant human DHODH (29 to 395 residues) N-terminally truncated soluble domain extracted from Escherichia coli phage resistant BL21-DE3 using CoQD/DHA/DCIP as substrates
Plasmodium falciparum = experiment: Antiparasitic activity against asexual blood stage Plasmodium falciparum 3D7 incubated for 72 hrs by SYBR Green assay; type: functional, organism-based; conditions: 3D7, 72 h
[4] = target: T1, Dihydroorotate dehydrogenase (quinone), mitochondrial (Plasmodium falciparum (isolate 3D7), UniProt Q08210); experiment: Inhibition of N-terminal His6-tagged recombinant Plasmodium falciparum DHODH (158 to 569 residues) N-terminally truncated soluble domain extracted from Escherichia coli phage resistant BL21-DE3 using CoQD/DHA/DCIP as substrates
T1 sequence (Q08210 whole entry): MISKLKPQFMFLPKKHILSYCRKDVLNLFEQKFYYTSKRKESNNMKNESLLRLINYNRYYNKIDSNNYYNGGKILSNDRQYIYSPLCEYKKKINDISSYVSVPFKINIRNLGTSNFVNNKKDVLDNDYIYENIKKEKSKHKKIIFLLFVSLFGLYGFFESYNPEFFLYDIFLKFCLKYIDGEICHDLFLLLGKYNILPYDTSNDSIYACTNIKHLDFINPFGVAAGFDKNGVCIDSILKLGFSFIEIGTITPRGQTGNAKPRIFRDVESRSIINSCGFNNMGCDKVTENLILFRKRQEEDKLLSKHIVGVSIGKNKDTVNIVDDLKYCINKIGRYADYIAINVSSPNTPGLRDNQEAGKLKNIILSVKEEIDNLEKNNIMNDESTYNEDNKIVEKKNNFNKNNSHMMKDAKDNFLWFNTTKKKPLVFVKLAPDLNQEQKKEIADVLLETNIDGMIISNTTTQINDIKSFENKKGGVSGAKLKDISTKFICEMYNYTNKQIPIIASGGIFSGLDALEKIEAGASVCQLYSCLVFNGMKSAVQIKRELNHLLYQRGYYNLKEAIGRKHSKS

Dihydroorotate dehydrogenase (quinone), mitochondrial (Homo sapiens, UniProt Q02127), sequence (Q02127 whole entry, the tested form may be a part): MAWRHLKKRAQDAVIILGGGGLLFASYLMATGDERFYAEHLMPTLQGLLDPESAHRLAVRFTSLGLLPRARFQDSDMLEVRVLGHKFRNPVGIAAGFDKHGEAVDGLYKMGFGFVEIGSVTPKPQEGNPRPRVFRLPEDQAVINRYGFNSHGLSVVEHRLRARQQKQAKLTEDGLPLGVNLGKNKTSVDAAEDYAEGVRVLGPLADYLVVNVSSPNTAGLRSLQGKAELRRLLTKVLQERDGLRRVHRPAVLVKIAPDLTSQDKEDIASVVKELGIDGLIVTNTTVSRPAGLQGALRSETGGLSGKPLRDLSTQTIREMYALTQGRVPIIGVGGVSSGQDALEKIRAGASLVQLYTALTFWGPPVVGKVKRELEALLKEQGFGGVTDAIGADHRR

Row | SMILES | intrinsic clearance (CLint) [1] [µL/min/mg] | solubility kinetic at 0.5 h [2] [µM] | IC50 [3] [nM] | EC50 (Plasmodium falciparum) [nM] | Kinetic_solubility [2] [µM] | IC50 [4] [nM]
1 | CCn1cc(C)c2c([C@@H](N)c3ccc(C(F)(F)F)nc3)n(C)nc2c1=O | – | – | – | 2600 | – | 1100
2 | CC[C@](O)(c1cnc(C(F)(F)F)c(Cl)c1)c1c2ccn(C3CC3)c(=O)c2nn1C | – | – | – | 440 | – | 14000
3 | CCn1cc(C)c2c([C@@H](O)c3ccc(C(F)(F)F)nc3)n(C)nc2c1=O | – | – | – | 220 | – | 280
4 | CCn1cc(C2CC2)c2c(Cc3cnc(C(F)(F)F)c(Cl)c3)n(C)nc2c1=O | 28 | 50 (≈ 20.5 µg/mL) | 60000 | 35 | – | –
5 | Cn1nc2c(=O)n(C3CC3)ccc2c1[C@](O)(c1ccc(C(F)(F)F)c(Cl)c1)C(F)(F)F | < 3 | 5 (≈ 2.33 µg/mL) | 4300 | – | – | –
6 | Cn1nc2c(=O)n(CCC3CC3)ccc2c1Cc1ccc(C(F)(F)F)nc1 | – | – | – | 14000 | – | > 100000
7 | Cn1nc2c(=O)n(C3CC3)ccc2c1[C@@](O)(c1cnc(C(F)(F)F)c(Cl)c1)C(F)(F)F | – | – | – | 410 | – | –
8 | Cn1nc2c(=O)n(C3CC3)cnc2c1[C@@](O)(c1cnc(C(F)(F)F)c(Cl)c1)C(F)(F)F | – | – | – | 550 | – | 4500
9 | CCCn1ccc2c(Cc3ccc(C(F)(F)F)nc3)n(C)nc2c1=O | – | – | – | 14000 | – | –
10 | CCn1cc(C2CC2)c2c(CN3CCC(F)(F)CC3)n(C)nc2c1=O | 20 | 50 (≈ 17.5 µg/mL) | > 100000 | 300 | – | –
11 | Cn1nc2c(=O)n(C3CC3)ccc2c1[C@](C)(O)c1cnc(C(F)(F)F)c(Cl)c1 | 6.8 | 80 (≈ 33 µg/mL) | > 30000 | 1 | – | –
12 | Cn1nc2c(=O)n(C3CC3)ncc2c1[C@@](O)(c1cnc(C(F)(F)F)c(Cl)c1)C(F)(F)F | – | – | – | 700 | – | –
13 | CCn1cc(C2CC2)c2c(CN3CCCC(F)(F)C3)n(C)nc2c1=O | 26 | 80 (≈ 28 µg/mL) | – | 93 | – | –
14 | CC[C@](N)(c1cnc(C(F)(F)F)c(Cl)c1)c1c2ccn(C3CC3)c(=O)c2nn1C | – | – | – | 2300 | – | 17000
15 | Cn1nc2c(=O)n(C)ccc2c1Cc1ccc(C(F)(F)F)nc1 | – | – | – | 6000 | – | 4500
16 | CC[C@](O)(c1cnc(C(F)(F)F)c(Cl)c1)c1c2cnn(C3CC3)c(=O)c2nn1C | – | – | – | 1700 | – | –
17 | CCn1cc(C2CC2)c2c([C@@H](O)c3ccc(C(F)(F)F)nc3)n(C)nc2c1=O | – | – | – | 2100 | – | –
18 | CCn1cc(Cl)c2c(Cc3ccc(N4CCN(C)CC4)nc3)n(C)nc2c1=O | – | – | – | 2700 | – | 1500
19 | CC[C@](N)(c1cnc(C(F)(F)F)c(Cl)c1)c1c2ncn(C3CC3)c(=O)c2nn1C | – | – | – | 980 | – | 4200

The remaining molecules from weak to strong by EC50 (Plasmodium falciparum), led by results:

Row | intrinsic clearance (CLint) [1] [µL/min/mg] | solubility kinetic at 0.5 h [2] [µM] | IC50 [3] [nM] | EC50 (Plasmodium falciparum) [nM] | Kinetic_solubility [2] [µM] | SMILES | IC50 [4] [nM]
20 | 74 | 40 (≈ 15.1 µg/mL) | 57000 | 35 | – | CCn1cc(C2CC2)c2c(CN3CCC(F)(F)CC3(C)C)n(C)nc2c1=O | –
21 | 10 | 70 (≈ 26.8 µg/mL) | 16000 | 20 | – | Cn1nc2c(=O)n(C3CC3)cc(Cl)c2c1Cc1ccc(C(F)(F)F)nc1 | –
22 | 18 | – | > 30000 | 18 | > 100 | CCn1cc(C2CC2)c2c(CN3CCC(C)(F)CC3)n(C)nc2c1=O | –
23 | 5.4 | 20 (≈ 8.8 µg/mL) | > 30000 | 15 | – | Cn1nc2c(=O)n(C3CC3)ncc2c1[C@](O)(c1cnc(C(F)(F)F)c(Cl)c1)C1CC1 | –
24 | 3.2 | 160 (≈ 64.1 µg/mL) | > 100000 | 11 | – | CCn1cc(C)c2c([C@H](O)c3cnc(C(F)(F)F)c(Cl)c3)n(C)nc2c1=O | –
25 | 15 | 160 (≈ 62.8 µg/mL) | > 100000 | 8 | – | CCn1cc(C2CC2)c2c([C@H](O)c3ccc(C(F)(F)F)nc3)n(C)nc2c1=O | –
26 | – | – | – | 7 | – | Cc1cc(Nc2ccc(S(F)(F)(F)(F)F)cc2)n2nc(C(C)(F)F)nc2n1 [DSM-265] | –
27 | < 3 | 80 (≈ 31.4 µg/mL) | > 100000 | 7 | – | CCn1ccc2c([C@](O)(c3ccc(C(F)(F)F)nc3)C3CC3)n(C)nc2c1=O | –
28 | 6 | 80 (≈ 34.1 µg/mL) | > 100000 | 5 | – | CCn1cc(C2CC2)c2c([C@H](O)c3cnc(C(F)(F)F)c(Cl)c3)n(C)nc2c1=O | –
29 | < 3 | 80 (≈ 35.2 µg/mL) | > 30000 | 4 | – | Cn1nc2c(=O)n(C3CC3)cnc2c1[C@](O)(c1cnc(C(F)(F)F)c(Cl)c1)C1CC1 | –
30 | 24 | 50 (≈ 19.5 µg/mL) | 67000 | 4 | – | CCn1cc(C2CC2)c2c(Cc3cnc(C(F)(F)F)c(C)c3)n(C)nc2c1=O | –
31 | < 3 | 40 (≈ 18.6 µg/mL) | > 30000 | 3 | – | Cn1nc2c(=O)n(C3CC3)ccc2c1[C@](N)(c1cnc(C(F)(F)F)c(Cl)c1)C(F)(F)F | –
32 | < 3 | 20 (≈ 8.52 µg/mL) | – | 3 | – | CC[C@@](N)(c1ccc(C(F)(F)F)c(Cl)c1)c1c2cnn(C3CC3)c(=O)c2nn1C | –
33 | < 3 | 40 (≈ 15.7 µg/mL) | 5000 | 3 | – | CC[C@@](O)(c1ccc(C(F)(F)F)nc1)c1c2ccn(C3CC3)c(=O)c2nn1C | –
34 | < 3 | 50 (≈ 21.6 µg/mL) | > 30000 | 2 | – | Cn1nc2c(=O)n(C3CC3)ccc2c1[C@](O)(c1ccc(C(F)(F)F)nc1)C(F)(F)F | –
35 | < 3 | – | > 30000 | 2 | < 5 | Cn1nc2c(=O)n(C3CC3)ncc2c1[C@](O)(c1ccc(C(F)(F)F)c(Cl)c1)C1CC1 | –
36 | 25 | 80 (≈ 32.1 µg/mL) | > 100000 | 1 | – | CCn1ccc2c([C@](C)(O)c3cnc(C(F)(F)F)c(Cl)c3)n(C)nc2c1=O | –
37 | 3.2 | 50 (≈ 19.7 µg/mL) | – | 1 | – | CC[C@@](O)(c1cc(F)c(Cl)c(F)c1)c1c2ccn(C3CC3)c(=O)c2nn1C | –
38 | 3.7 | – | – | 1 | > 100 | CC[C@@](O)(c1cnc(C(F)(F)F)c(Cl)c1)c1c2ncn(C3CC3)c(=O)c2nn1C | –
39 | 6 | 50 (≈ 18.9 µg/mL) | 2100 | 1 | – | CC[C@@](O)(c1cc(F)c(F)c(F)c1)c1c2ccn(C3CC3)c(=O)c2nn1C | –
40 | < 3 | 20 (≈ 8.32 µg/mL) | 8500 | 1 | – | Cn1nc2c(=O)n(C3CC3)ccc2c1[C@](O)(c1ccc(F)c(Cl)c1)C(F)(F)F | –

Source: ChEMBL document CHEMBL6087456 (J Med Chem, 2025)
